Test system: not listed separately
Experiment: physchem
Format: physicochemical
Conditions: not given
Experimental: Measurement of Log P values as provided herein was performed according to EEC directive 79/831 Annex V.A8 by HPLC (High Performance Liquid Chromatography) on reversed phase columns with the following methods: • ^[a]
If more than one Log P value is available within the same method, all the values are given and separated by “+”.
Lambda-max-values were determined using UV-spectra from 200 nm to 400 nm and the peak values of the chromatographic signals

Row | Structure (SMILES) | LogP
1 | Cc1ccc(CC2CON=C(c3cc(Cl)ncc3Br)N2)c(C)c1 (stereo not shown) [7-01] | 3.31^[a]
2 | COCCOc1c(Cl)ncc(Oc2cccc(C(F)(F)F)c2)c1C1=NOCC(Cc2ccc(C)cc2C)N1 (racemic) [Compound I-129] | 4.51^[a]
3 | Fc1c(Oc2cnc(Cl)cc2C2=NOCC(Cc3ccc(Cl)cc3Cl)N2)cccc1C1CC1 (racemic) [Compound I-024] | 4.98^[a]
4 | FC(F)(F)c1cccc(Oc2cnc(Cl)cc2C2=NOCC(c3ccccc3)N2)c1 (racemic) [Compound I-070] | 3.64^[a]
5 | Cc1ccc(CC2CON=C(c3c(Oc4cccc(C(F)(F)F)c4)cnc(Cl)c3C3CC3)N2)c(C)c1 (stereo not shown) [Compound I-150] | 4.70^[a]
6 | Cc1ccc(CC(CON)NC(=O)c2cc(Cl)ncc2Oc2cccc(Cl)c2)c(C)c1 (stereo not shown) [4-12] | 3.35^[a]
7 | Cn1cc(C2CON=C(c3cc(Cl)ncc3Oc3cccc(C(F)(F)F)c3)N2)c2ccccc21 (racemic) [Compound I-096] | 4.01^[a]
8 | COc1cc(C(=O)NC(CCl)Cc2ccc(C)cc2C)c(Oc2cccc(C(F)(F)F)c2)cn1 (stereo not shown) [14-05] | 5.26^[a]
9 | Cc1ccc(CC2CNN=C(c3cc(Cl)ncc3Oc3cccc(C(F)(F)F)c3)N2)c(C)c1 (racemic) [Compound I-084] | 2.86^[a]
10 | COc1ccc(C2CCON=C(c3cc(Cl)ncc3Oc3cccc(C(F)(F)F)c3)N2)cc1 (stereo not shown) [Compound I-155] | 1.90^[a]
11 | Fc1c(Br)cccc1Oc1cnc(Cl)cc1C1=NOCC(Cc2ccc(Cl)cc2Cl)N1 (racemic) [Compound I-115] | 4.69^[a]
12 | COc1cccc(Oc2cnc(C)cc2C2=NOCC(Cc3ccc(C)cc3C)N2)c1 (racemic) [Compound I-009] | 3.29^[a]
13 | Cc1ccc(CC(CON)NC(=O)c2cc(Cl)ncc2Oc2cccc(C(F)F)c2)c(C)c1 (stereo not shown) [4-11] | 3.09^[a]
14 | Cc1ccc(CC2CON=C(c3cc(Cl)ncc3Oc3ccc(OC(F)(F)F)cc3)N2)c(C)c1 (racemic) [Compound I-120] | 4.76^[a]
15 | NOCC(Cc1ccc(Cl)cc1Cl)NC(=O)c1cc(Cl)ncc1Oc1cccc(C2CC2)c1 (stereo not shown) [4-03] | 4.06^[a]
16 | COc1cc(C(=O)NC(CCl)Cc2ccc(C)cc2Cl)c(Br)cn1 (stereo not shown) [17-03] | 3.94^[a]
17 | CC(=O)OC1ON=C(c2cc(Cl)ncc2Oc2cccc(C(F)(F)F)c2)NC1c1ccc(Cl)cc1 (mixture of isomers) [Compound I-073] | 4.08^[a]
18 | Cc1cccc(Oc2cnc(Cl)cc2C(=O)NC(CON)Cc2ccc(C)cc2C)c1 (stereo not shown) [4-07] | 3.37^[a]
19 | Fc1c(Cl)cccc1Oc1cnc(Cl)cc1C1=NOCC(Cc2ccc(Cl)cc2Cl)N1 (racemic) [Compound I-102] | 4.71^[a]

Row | Structure (SMILES) | LogP
20 | Cc1ccc(CC(CCl)NC(=O)c2cc(Cl)ncc2Br)c(Cl)c1 (stereo not shown) [17-02] | 3.94^[a]
21 | FC(F)(F)c1cccc(Oc2cnc(Cl)cc2C2=NOCC(Cc3ccc(C(F)(F)F)cc3Cl)N2)c1 (racemic) [Compound I-105] | 4.84^[a]
22 | Cc1ccc(CC(N)CC(N)=O)c(C)c1 (stereo not shown) [13-09] | 0.69^[a]
23 | Cc1ccc(CC(CCl)NC(=O)c2c(Oc3cccc(C(F)(F)F)c3)cnc(Cl)c2I)c(C)c1 (stereo not shown) [14-04] | 5.18^[a]
24 | Clc1ccc(CC2CON=C(c3cc(Cl)ncc3Oc3cccc(C4CC4)c3)N2)c(Cl)c1 (racemic) [Compound I-025] | 4.98^[a]
25 | Cc1ccc(CC(CCl)NC(=O)c2cc(Cl)nc(F)c2Oc2cccc(C(F)(F)F)c2)c(C)c1 (stereo not shown) [14-06] | 5.45^[a]
26 | Cc1ccc(CC2CON=C(c3cc(Cl)ncc3Oc3ccc4ccccc4c3)N2)c(C)c1 (racemic) [Compound I-086] | 4.77^[a]
27 | Cc1ccc(CC2CON=C(c3cc(C#N)ncc3Oc3cccc(C(F)(F)F)c3)N2)cc1 (racemic) [Compound I-057] | 4.12^[a]
28 | C#Cc1cc(C2=NOCC(Cc3ccc(Br)cc3C)N2)c(Oc2cccc(C(F)(F)F)c2)cn1 (racemic) [Compound I-091] | 4.19^[a]
29 | Cc1ccc(CC2CON=C(c3cc(Cl)ncc3Oc3cccc(Cl)c3)N2)c(C)c1 (single isomer, unassigned) [Compound I-011] | 4.53^[a]
30 | Cc1cc(C2=NOCC(Cc3ccc(Cl)cc3Cl)N2)c(Oc2cccc(C3CC3)c2)cn1 (racemic) [Compound I-028] | 4.08^[a]
31 | COc1cc(C2=NOCC(Cc3ccc(C)cc3C)N2)c(Oc2cccc(C(F)(F)F)c2)cn1 (stereo not shown) [Compound I-152] | 4.55^[a]
32 | C=C(OCC)c1cc(C(=O)OC)c(Oc2cccc(C(F)(F)F)c2)cn1 [Compound 1-05] | 4.70^[a]
33 | Cc1cccc(Oc2cnc(Cl)cc2C2=NOCC(Cc3ccc(C)cc3C)N2)c1 (racemic) [Compound I-007] | 4.55^[a]
34 | FC1ON=C(c2cc(Cl)ncc2Oc2cccc(C(F)(F)F)c2)NC1c1ccc(Cl)cc1 (mixture of isomers) [Compound I-051] | 3.33^[a]
35 | COCCOc1cccc(Oc2cnc(Cl)cc2C2=NOCC(Cc3ccc(C)cc3C)N2)c1 (racemic) [Compound I-126] | 4.15^[a]
36 | Cc1ccc(CC2CON=C(c3cc(Cl)ncc3Oc3cccc(C4CC4F)c3)N2)c(C)c1 (mixture of isomers) [Compound I-143] | 4.38^[a]
37 | Clc1ccc(CC2CON=C(c3cc(Cl)ncc3Oc3ccc4c(c3)CCO4)N2)c(Cl)c1 (stereo not shown) [Compound I-130] | 4.30^[a]
38 | Cc1ccc(CC2CON=C(c3cc(Cl)ncc3Oc3cnc4c(c3)CCC4)N2)c(C)c1 (stereo not shown) [Compound I-140] | 3.17^[a]

Same assay, conditions: Table 1, compounds of formula (I); method [a]: LC-UV, acidic range, 0.1% formic acid in water and acetonitrile

Row | Structure (SMILES) | chromatographic logP
39 | Cc1ccc(CC2CON=C(c3cc(N4CCCC4)ncc3Oc3cccc(C(F)(F)F)c3)N2)cc1 (racemic) [Compound I-056, (5RS)-5-(4-methylbenzyl)-3-{2-(pyrrolidin-1-yl)-5-[3-(trifluoromethyl)phenoxy]pyridin-4-yl}-5,6-dihydro-4H-1,2,4-oxadiazine] | 3.5
40 | Cc1ccc(CC2CCN=C(c3cc(Cl)ncc3Oc3cccc(C(F)(F)F)c3)N2)c(C)c1 (racemic) [Compound I-088, rac-(6R)-2-[2-chloro-5-[3-(trifluoromethyl)phenoxy]-4-pyridyl]-6-[(2,4-dimethylphenyl)methyl]-1,4,5,6-tetrahydropyrimidine] | 2.62
41 | Cc1ccc(CC2CC(=O)N=C(c3cc(Cl)ncc3Oc3cccc(C(F)(F)F)c3)N2)c(C)c1 (racemic) [Compound I-098, rac-(6R)-2-[2-chloro-5-[3-(trifluoromethyl)phenoxy]-4-pyridyl]-6-[(2,4-dimethylphenyl)methyl]-5,6-dihydro-1H-pyrimidin-4-one] | 4.62

Same assay, conditions: Table 3, compounds of formula (1); method [a]: LC-UV, acidic range, 0.1% formic acid in water and acetonitrile

Row | Structure (SMILES) | chromatographic logP
42 | COC(=O)c1cc(Cl)ncc1Oc1cccc(C(F)(F)F)c1 [Compound 1-07, methyl 2-chloro-5-[3-(trifluoromethyl)phenoxy]isonicotinate] | 3.84

Same assay, conditions: Table 9, compounds of formula (4a)/(4b); method [a]

Row | Structure (SMILES) | chromatographic logP
43 | Cc1ccc(CC(CON)NC(=O)c2cc(Cl)ncc2Oc2cccc(C(F)(F)F)c2)c(C)c1 (racemic) [Compound 4-01, N-[(2RS)-1-(aminooxy)-3-(2,4-dimethylphenyl)propan-2-yl]-2-chloro-5-[3-(trifluoromethyl)phenoxy]isonicotinamide] | 3.48

Same assay, conditions: Table 13, compounds of formula (7); method [a]

Row | Structure (SMILES) | chromatographic logP
44 | Cc1ccc(CC2CON=C(c3ccncc3Br)N2)cc1 (racemic) [Compound 7-02, (5RS)-3-(3-bromopyridin-4-yl)-5-(4-methylbenzyl)-5,6-dihydro-4H-1,2,4-oxadiazine] | 2.31

Same assay, conditions: Table 15, compounds of formula (9); method [a]: LC-UV, acidic range, 0.1% formic acid in water and acetonitrile

Row | Structure (SMILES) | chromatographic logP
45 | N#Cc1cc(Cl)ncc1Oc1cccc(C(F)(F)F)c1 [Compound 9-01, 2-chloro-5-[3-(trifluoromethyl)phenoxy]isonicotinonitrile] | 3.77

Test system: Alternaria alternata
Experiment: Alternaria alternata in vitro cell test
Format: cell-based
Conditions: 120 h, 20 ppm of active ingredient, liquid culture with spores, 5 days incubation, spectrometric measurement of mycelium growth, read-out: efficacy (inhibition of fungal growth)
Experimental: (§1) B-5. Alternaria alternata In Vitro Cell Test • Solvent: DMSO • Culture medium: 14.6 g anhydrous D-glucose (VWR), 7.1 g Mycological Peptone (Oxoid), 1.4 g granulated Yeast Extract (Merck), QSP 1 liter • Inoculum: spores suspension • Fungicides were solubilized in DMSO and the solution used to prepare the required range of concentrations. […] A spore suspension of A. alternata was prepared and diluted to the desired spore density. Fungicides were evaluated for their ability to inhibit spore germination and mycelium growth in liquid culture assay. The compounds were added in the desired concentration to the culture medium with spores. After 5 days incubation, fungi-toxicity of compounds was determined by spectrometric measurement of mycelium growth. Inhibition of fungal growth was determined by comparing the absorbance values in wells containing the fungicides with the absorbance in control wells without fungicides.

Row | Structure (SMILES) | inhibition at 20 ppm
46 | Cc1ccc(CC2CON=C(c3cc(N4CCCC4)ncc3Oc3cccc(C(F)(F)F)c3)N2)cc1 (racemic) [Compound I-056, (5RS)-5-(4-methylbenzyl)-3-{2-(pyrrolidin-1-yl)-5-[3-(trifluoromethyl)phenoxy]pyridin-4-yl}-5,6-dihydro-4H-1,2,4-oxadiazine] | 90 to 100%
47 | Cc1ccc(CC2CCN=C(c3cc(Cl)ncc3Oc3cccc(C(F)(F)F)c3)N2)c(C)c1 (racemic) [Compound I-088, rac-(6R)-2-[2-chloro-5-[3-(trifluoromethyl)phenoxy]-4-pyridyl]-6-[(2,4-dimethylphenyl)methyl]-1,4,5,6-tetrahydropyrimidine] | 80 to 89%
48 | Cc1ccc(CC2CC(=O)N=C(c3cc(Cl)ncc3Oc3cccc(C(F)(F)F)c3)N2)c(C)c1 (racemic) [Compound I-098, rac-(6R)-2-[2-chloro-5-[3-(trifluoromethyl)phenoxy]-4-pyridyl]-6-[(2,4-dimethylphenyl)methyl]-5,6-dihydro-1H-pyrimidin-4-one] | 80 to 89%

Test system: Pyricularia oryzae
Experiment: microbe, parasite or virus in culture
Format: cell-based
Conditions: 120 h, read-out: efficacy (inhibition of fungal growth)

Row | Structure (SMILES) | inhibition at 20 ppm
49 | Cc1ccc(CC2CON=C(c3cc(N4CCCC4)ncc3Oc3cccc(C(F)(F)F)c3)N2)cc1 (racemic) [Compound I-056, (5RS)-5-(4-methylbenzyl)-3-{2-(pyrrolidin-1-yl)-5-[3-(trifluoromethyl)phenoxy]pyridin-4-yl}-5,6-dihydro-4H-1,2,4-oxadiazine] | 80 to 89%

Test system: Colletotrichum lindemuthianum
Experiment: Colletotrichum lindemuthianum in vitro cell test
Format: cell-based
Conditions: 144 h, 20 ppm of active ingredient, liquid culture with spores, 6 days incubation, spectrometric measurement of mycelium growth, read-out: efficacy (inhibition of fungal growth)
Experimental: as §1, with “B-7. Colletotrichum lindemuthianum In” for “B-5. Alternaria alternata In”, “of C. lindemuthianum” for “of A. alternata”, “inhibit spores” for “inhibit spore”, “After 6” for “After 5”

Row | Structure (SMILES) | inhibition at 20 ppm
50 | Cc1ccc(CC2CON=C(c3cc(N4CCCC4)ncc3Oc3cccc(C(F)(F)F)c3)N2)cc1 (racemic) [Compound I-056, (5RS)-5-(4-methylbenzyl)-3-{2-(pyrrolidin-1-yl)-5-[3-(trifluoromethyl)phenoxy]pyridin-4-yl}-5,6-dihydro-4H-1,2,4-oxadiazine] | 90 to 100%
51 | Cc1ccc(CC2CCN=C(c3cc(Cl)ncc3Oc3cccc(C(F)(F)F)c3)N2)c(C)c1 (racemic) [Compound I-088, rac-(6R)-2-[2-chloro-5-[3-(trifluoromethyl)phenoxy]-4-pyridyl]-6-[(2,4-dimethylphenyl)methyl]-1,4,5,6-tetrahydropyrimidine] | 70 to 79%
52 | Cc1ccc(CC2CC(=O)N=C(c3cc(Cl)ncc3Oc3cccc(C(F)(F)F)c3)N2)c(C)c1 (racemic) [Compound I-098, rac-(6R)-2-[2-chloro-5-[3-(trifluoromethyl)phenoxy]-4-pyridyl]-6-[(2,4-dimethylphenyl)methyl]-5,6-dihydro-1H-pyrimidin-4-one] | 90 to 100%

Source: patent US12534456B2, “Heterocyclyl pyridines as novel fungicides” (Bayer Aktiengesellschaft, priority 2020, dated 2026)
